The values below come from US20260258084A1, “New Peptides as Selective IL-23 Receptor Antagonists” (Sanofi, priority 2022, published 2026).

The target in data set [1] is T1, human interleukin-23 receptor (recombinant human IL-23R-Fc chimera) (Homo sapiens, UniProt Q5VWK5).
T1 construct: Fc (IgG Fc fusion)
The experiment in a line: Human ELISA IL23/IL23R (assay for specific human IL23R antagonists). It is filed as binding. As to conditions: Table 10; read-out: Human ELISA IL23/IL23R IC50. In a few lines:
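Competition format: peptide dilutions compete for IL23R-Fc chimera (0.1 μg/ml final, 60 min, room temperature) binding to immobilized human IL23 coated at […] overnight at 4 °C. Read-out is fluorogenic HRP signal from goat anti-hu-IgG1 detecting captured receptor.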
A general note: An ELISA detects its analyte on a solid surface through an enzyme-linked reagent.

Data set [2] concerns IL-23 induced STAT3 signaling in HEK-Blue™ IL-23 cells. Nature of the data set: IL-23 induced STAT3 signaling in HEK-Blue IL-23 cells (SEAP reporter). As to conditions: human IL23 0.25 ng/ml, read-out: pSTAT3. The format is cell-based. In a few lines:
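Secreted SEAP, read at OD 620-655 nm after 45 min QUANTI-Blue development, reports STAT3 activation. Beforehand, cells were exposed to peptide dilutions for 60 min at 37 °C and then to 0.25 ng/ml final human IL-23 overnight, at 10,000 cells/well.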

The nature of data set [3]: Solubility testing of peptides at different pH. The format is physicochemical. As to conditions: target concentration 1 mg/ml, 2 hours agitation. In a few lines: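 Four buffers were used: 50 mM HCl pH 1.2 and 50 mM phosphate at pH 6.5, 7.4 and 9.0, each receiving dried-down compound at a 1 mg/mL target. After 2 h gentle shaking and 0.45 μm filtration, UV peak areas were compared with a DMSO standard curve of known concentration, allowing for extinction coefficients.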

Data set [4] in a line: Chemical stability assessment of peptides (relative purity loss). It is filed as physicochemical. As to conditions: 24 hours at 37° C.; for Chemical stability (relative purity loss) Buffer pH 1.2: 50 mM HCl pH 1.2 + acetonitrile (1:1); for Chemical stability (relative purity loss) Buffer pH 6.5: 50 mM phosphate buffer pH 6.5 + acetonitrile (1:1); for Chemical stability (relative purity loss) Buffer pH 7.4: 50 mM phosphate buffer pH 7.4 + acetonitrile (1:1). Put shortly:
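Peptide solutions at 1 mg/ml (purity-corrected) in 1:1 acetonitrile with 50 mM HCl pH 1.2, or 50 mM phosphate pH 6.5 or pH 7.4, held 24 hours at 2° C. and 37° C. Supernatants analysed by UHPLC-UV; relative purity loss taken as percent drop in peak-area purity from 0 to 24 hours at 37° C.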

The test system of another data set is T2, Pepsin.
T2 construct: purchased Merck Millipore
Nature of the data set: Protease stability in simulated gastric fluid (Pepsin-SGF, FaSSGF). The format is in vitro ADME. The conditions noted are these: simulated gastric fluid with pepsin (Pepsin-SGF), 60 min, 1 μM peptide, 37° C., read-out: FaSSGF 60 (min), remaining percent of peptide. In a few lines: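 LCMS/MS peak areas, normalised to the time-0 sample as 100%, give percent remaining. Conditions: 37° C incubation of 1 μM final peptide in simulated gastric fluid with pepsin; ethanol/0.1% HCOOH quench at 0, 60, 120, 240 min.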

Setting [5] is: 50 mM HCl buffer, 50 mM HCl pH 1.2, read-out: Solubility Buffer pH 1.2.
Setting [6] is: 50 mM phosphate buffer pH 6.5, read-out: Solubility Buffer pH 6.5.
Where [7] appears, read: 50 mM phosphate buffer pH 7.4, read-out: Solubility Buffer pH 7.4.
The mark [8] stands for this setting: 50 mM phosphate buffer pH 9.0, read-out: Solubility Buffer pH 9.0.

A word on the solubility: it is the dissolved amount per volume that the medium holds. Broadly, the amount remaining is the share of the starting amount still present when the sample was taken.

The structures appear in SMILES notation. Values after ≈ are worked out from the molar mass of the structure shown. Where two headings read alike, the source gives them in different places. Starred links: 1 amine or outer side, 2 acyl side, 3 side chain; linkers in the order of their positions; H or OH if unused. Positions of bridges follow the written chain, without caps; N, C: chain ends. Non-standard residues stand in square brackets, D forms with d. Residues, ends and D or L forms follow the SMILES beside them. *: point of attachment. Trp(7-Me) = Cc1cccc2c(C[C@H](N)C(=O)O)c[nH]c12; 2Nal = N[C@@H](Cc1ccc2ccccc2c1)C(=O)O; X4 = CN(CCCCCC(=O)[*:2])[*:1]; αMeL = CC(C)C[C@](C)(N)C(=O)O; Me2NCH2CH2 = CN(C)CC*; Aib = CC(C)(N)C(=O)O; Ava = NCCCCC(=O)O; Sar = CNCC(=O)O Some results are limits rather than exact numbers.

For the compound `COc1ccc(C[C@@H]2NC(=O)[C@@H]3CSSC[C@H](NC(=O)CCCCNC(=O)CC[C@@H](C(=O)N[C@@H](CC(N)=O)C(=O)NCC(N)=O)NC(=O)C(C)(C)NC(=O)[C@H](Cc4ccc5ccccc5c4)NC2=O)C(=O)N[C@@H](CC(N)=O)C(=O)N[C@@H]([C@@H](C)O)C(=O)N[C@@H](Cc2c[nH]c4ccccc24)C(=O)N[C@@H](CCC(N)=O)C(=O)N3)cc1` [compound 4] ([Ava]CNTWQCY(Me)[2Nal][Aib]ENG-NH2; disulfide 2-7; lactam N-11), the IC50 in data set [1] was 0.95 nM; in data set [2] it was 34.8 nM. Further, the solubility at 2 h in data set [3] (setting [5]) was determined as 30 µg/mL (≈ 18.8 µM); in data set [3] (setting [6]), 20 µg/mL (≈ 12.6 µM); in data set [3] (setting [7]), 20 µg/mL (≈ 12.6 µM); in data set [3] (setting [8]), 10 µg/mL (≈ 6.28 µM). For the same compound, the “Chemical stability (relative purity loss) Buffer pH 1.2” value in data set [4] came out at 22.4%. In data set [4], the “Chemical stability (relative purity loss) Buffer pH 6.5” value is 0.7%. Besides, the “Chemical stability (relative purity loss) Buffer pH 7.4” value in data set [4] is recorded as 7.0%. For the same compound, the amount remaining at 1 h, 1 µM in the data set with Pepsin was 1%.
As for `CC(=O)NCCCC[C@@H]1NC(=O)[C@H](Cc2c[nH]c3c(C)cccc23)NC(=O)[C@H]([C@@H](C)O)NC(=O)[C@H](CC(N)=O)NC(=O)[C@@H]2CSSC[C@H](NC1=O)C(=O)N[C@@H](Cc1ccc(OCCN(C)C)cc1)C(=O)N[C@@H](Cc1ccc3ccccc3c1)C(=O)NC(C)(C)C(=O)N[C@H](C(=O)N[C@@H](CC(N)=O)C(=O)N[C@@H](Cc1c[nH]cn1)C(=O)N(C)CC(N)=O)CCC(=O)NCCCCC(=O)N2` [compound 45] ([Ava]CNT[Trp(7-Me)]K(Ac)CY(Me2NCH2CH2)[2Nal][Aib]ENH[Sar]-NH2; disulfide 2-7; lactam N-11), the IC50 amounted to 0.32 nM in data set [1] and 0.67 nM in data set [2]. For the same compound, the solubility at 2 h was at least 1160 µg/mL in data set [3] (setting [5]), at least 1060 µg/mL in data set [3] (setting [6]), at least 1180 µg/mL in data set [3] (setting [7]) and 350 µg/mL (≈ 189 µM) in data set [3] (setting [8]). For the same compound, the “Chemical stability (relative purity loss) Buffer pH 1.2” value in data set [4] is on record as 15.7%. In addition, the “Chemical stability (relative purity loss) Buffer pH 6.5” value in data set [4] is reported as 0.0%. In addition, the “Chemical stability (relative purity loss) Buffer pH 7.4” value in data set [4] is 2.3%. Moreover, in the data set with Pepsin, the share remaining at 1 h, 1 µM is 100%.
As to `CC(=O)NCCCC[C@@H]1NC(=O)[C@H](Cc2c[nH]c3c(C)cccc23)NC(=O)[C@H]([C@@H](C)O)NC(=O)[C@H](CC(N)=O)NC(=O)[C@@H]2CSSC[C@H](NC1=O)C(=O)N[C@@H](Cc1ccc(OCCN(C)C)cc1)C(=O)N[C@@H](Cc1ccc3ccccc3c1)C(=O)N[C@@](C)(CC(C)C)C(=O)N[C@H](C(=O)N[C@@H](CC(N)=O)C(=O)N[C@@H](Cc1c[nH]cn1)C(=O)N(C)CC(N)=O)CCC(=O)NCCCCC(=O)N2` [compound 47] ([Ava]CNT[Trp(7-Me)]K(Ac)CY(Me2NCH2CH2)[2Nal][αMeL]ENH[Sar]-NH2; disulfide 2-7; lactam N-11), the IC50 in data set [1] came to 0.31 nM; in data set [2] it was 0.57 nM. Also, the solubility at 2 h in data set [3] (setting [5]) was at least 1000 µg/mL; in data set [3] (setting [6]), at least 950 µg/mL; in data set [3] (setting [7]), 540 µg/mL (≈ 284 µM); in data set [3] (setting [8]), 110 µg/mL (≈ 57.9 µM). The “Chemical stability (relative purity loss) Buffer pH 1.2” value in data set [4] was determined as 2.9%. Moreover, the “Chemical stability (relative purity loss) Buffer pH 6.5” value in data set [4] was 0.6%. Further, the “Chemical stability (relative purity loss) Buffer pH 7.4” value in data set [4] is 0.9%. The share remaining at 1 h, 1 µM with Pepsin was 96%.
On to `CC(C)C[C@@H](NC(=O)[C@H](CC(N)=O)NC(=O)[C@@H]1CC(=O)N(C)CCCCCC(=O)N[C@H]2CSSC[C@H](NC(=O)[C@H](CCC(N)=O)NC(=O)[C@H](Cc3c[nH]c4ccccc34)NC(=O)[C@H]([C@@H](C)O)NC(=O)[C@H](CC(N)=O)NC2=O)C(=O)N[C@@H](Cc2ccc(OCCN(C)C)cc2)C(=O)N[C@@H](Cc2ccc3ccccc3c2)C(=O)N[C@@](C)(CC(C)C)C(=O)N1)C(N)=O` [compound 40] ([X4]CNTWQCY(Me2NCH2CH2)[2Nal][αMeL]DN[dL]-NH2; disulfide 2-7; lactam N-11), for which the IC50 in data set [1] came out at 1 nM; in data set [2], 50.8 nM. In addition, the solubility at 2 h in data set [3] (setting [5]), in data set [3] (setting [6]), in data set [3] (setting [7]) and in data set [3] (setting [8]) was under 10 µg/mL in each case. In addition, the “Chemical stability (relative purity loss) Buffer pH 1.2” value in data set [4] was 8.3%. Further, the “Chemical stability (relative purity loss) Buffer pH 6.5” value in data set [4] is listed as 1.3%. In data set [4], the “Chemical stability (relative purity loss) Buffer pH 7.4” value is recorded as 3.0%. Besides, the amount remaining at 1 h, 1 µM with Pepsin is 12%.
